Our source for the IC50 values is US8129371B2, “Thienopyrimidine and pyrazolopyrimidine compounds and their use as mTOR kinase and PI3 kinase inhibitors” (Wyeth LLC, priority 2007, dated 2012).

One assay has as its system breast line MDA468. Kind of assay: In vitro cell culture growth assay (MTS), MDA468. The format is cell-based. The following applies: Homo sapiens, 72 h, MDA468 cells, three days after drug treatment. Put shortly: (§1)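 Following a one-day attachment period, cells received inhibitors for 3 days. MTS metabolism by viable cells was quantified at 490 nm absorbance and converted to percent of same-plate vehicle control growth.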

A further assay addresses T1, Human mTOR (FLAG-TOR) (Homo sapiens, UniProt P42345).
T1 construct: FLAG
Kind of assay: Human mTOR kinase assay with purified enzyme, DELFIA format. Format: biochemical. Put shortly:
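DELFIA readout: Eu-anti-P(T389)-S6K antibody (40 ng/mL, 1 h) on captured His6-S6K from the stopped reaction. Kinase step used purified FLAG-tagged human mTOR with test compound in HEPES (pH 7.4)/MnCl2/DTT buffer, 2 h at room temperature (linear 1–6 h), terminated by EDTA/EGTA.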

Assay [1] has as its target T2, PI3K (Homo sapiens, UniProt P42336).
T2 construct: PI3 Kinase α IC50; other: PI3 Kinase α; other: PI3 Kinase α isoform, fluorescence polarization
Briefly: Fluorescence polarization assay for PI3K. The format is biochemical. The following applies: PI3 Kinase α; read-out: PI3 Kinase α IC50. The gist of the method: (§2)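 Fluorescence-polarization competition readout: after 30–60 min of PIP2/ATP turnover in 1% DMSO, a stop mix with GST-GRP (70 nM) and red probe (10 nM) was added.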

Assay [2] concerns the target T3, PI3K (Homo sapiens, UniProt P48736).
T3 construct: PI3 Kinase γ IC50; other: PI3 Kinase γ; other: PI3 Kinase γ isoform, fluorescence polarization
Kind of assay: Fluorescence polarization assay for PI3K. The following applies: PI3 Kinase γ; read-out: PI3 Kinase γ IC50. The format is biochemical. Put shortly:
as §2
(In fluorescence polarisation assays a small probe gives low polarisation when free and higher when bound to something large.)

The next assay concerns prostate line LNCap. Briefly: In vitro cell culture growth assay (MTS), LNCap. The format is cell-based. To be noted: Homo sapiens, LNCaP, 72 h, LNCap cells, three days after drug treatment. Put shortly:
as §1

Some results are limits rather than exact numbers.

T2 sequence (P42336 whole entry, canonical isoform): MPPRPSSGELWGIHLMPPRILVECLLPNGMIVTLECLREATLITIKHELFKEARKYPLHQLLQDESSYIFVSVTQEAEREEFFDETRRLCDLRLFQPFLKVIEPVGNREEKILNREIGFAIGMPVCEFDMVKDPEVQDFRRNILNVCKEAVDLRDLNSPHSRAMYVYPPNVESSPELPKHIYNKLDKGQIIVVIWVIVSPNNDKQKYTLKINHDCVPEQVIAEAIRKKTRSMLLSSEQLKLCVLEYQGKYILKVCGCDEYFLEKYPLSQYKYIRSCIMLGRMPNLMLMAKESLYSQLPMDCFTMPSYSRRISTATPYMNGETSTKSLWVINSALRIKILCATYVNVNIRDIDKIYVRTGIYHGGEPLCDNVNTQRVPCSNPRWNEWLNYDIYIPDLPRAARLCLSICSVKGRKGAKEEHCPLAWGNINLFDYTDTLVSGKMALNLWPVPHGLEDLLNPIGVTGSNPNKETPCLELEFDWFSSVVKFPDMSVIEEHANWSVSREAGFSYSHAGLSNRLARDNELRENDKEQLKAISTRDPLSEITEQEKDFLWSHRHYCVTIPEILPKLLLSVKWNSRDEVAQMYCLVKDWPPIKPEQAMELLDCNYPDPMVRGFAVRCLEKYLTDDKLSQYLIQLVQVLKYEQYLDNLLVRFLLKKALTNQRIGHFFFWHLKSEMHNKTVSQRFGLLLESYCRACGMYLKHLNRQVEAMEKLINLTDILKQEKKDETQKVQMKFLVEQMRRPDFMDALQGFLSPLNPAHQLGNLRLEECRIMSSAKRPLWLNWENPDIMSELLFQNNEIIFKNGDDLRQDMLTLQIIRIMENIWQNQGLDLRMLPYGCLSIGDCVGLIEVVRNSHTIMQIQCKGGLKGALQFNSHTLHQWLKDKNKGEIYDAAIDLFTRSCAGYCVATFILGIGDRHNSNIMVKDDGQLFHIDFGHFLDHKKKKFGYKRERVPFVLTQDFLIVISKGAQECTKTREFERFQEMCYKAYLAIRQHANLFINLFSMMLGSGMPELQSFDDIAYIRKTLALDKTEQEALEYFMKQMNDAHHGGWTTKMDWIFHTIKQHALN
T3 sequence (P48736 whole entry, canonical isoform): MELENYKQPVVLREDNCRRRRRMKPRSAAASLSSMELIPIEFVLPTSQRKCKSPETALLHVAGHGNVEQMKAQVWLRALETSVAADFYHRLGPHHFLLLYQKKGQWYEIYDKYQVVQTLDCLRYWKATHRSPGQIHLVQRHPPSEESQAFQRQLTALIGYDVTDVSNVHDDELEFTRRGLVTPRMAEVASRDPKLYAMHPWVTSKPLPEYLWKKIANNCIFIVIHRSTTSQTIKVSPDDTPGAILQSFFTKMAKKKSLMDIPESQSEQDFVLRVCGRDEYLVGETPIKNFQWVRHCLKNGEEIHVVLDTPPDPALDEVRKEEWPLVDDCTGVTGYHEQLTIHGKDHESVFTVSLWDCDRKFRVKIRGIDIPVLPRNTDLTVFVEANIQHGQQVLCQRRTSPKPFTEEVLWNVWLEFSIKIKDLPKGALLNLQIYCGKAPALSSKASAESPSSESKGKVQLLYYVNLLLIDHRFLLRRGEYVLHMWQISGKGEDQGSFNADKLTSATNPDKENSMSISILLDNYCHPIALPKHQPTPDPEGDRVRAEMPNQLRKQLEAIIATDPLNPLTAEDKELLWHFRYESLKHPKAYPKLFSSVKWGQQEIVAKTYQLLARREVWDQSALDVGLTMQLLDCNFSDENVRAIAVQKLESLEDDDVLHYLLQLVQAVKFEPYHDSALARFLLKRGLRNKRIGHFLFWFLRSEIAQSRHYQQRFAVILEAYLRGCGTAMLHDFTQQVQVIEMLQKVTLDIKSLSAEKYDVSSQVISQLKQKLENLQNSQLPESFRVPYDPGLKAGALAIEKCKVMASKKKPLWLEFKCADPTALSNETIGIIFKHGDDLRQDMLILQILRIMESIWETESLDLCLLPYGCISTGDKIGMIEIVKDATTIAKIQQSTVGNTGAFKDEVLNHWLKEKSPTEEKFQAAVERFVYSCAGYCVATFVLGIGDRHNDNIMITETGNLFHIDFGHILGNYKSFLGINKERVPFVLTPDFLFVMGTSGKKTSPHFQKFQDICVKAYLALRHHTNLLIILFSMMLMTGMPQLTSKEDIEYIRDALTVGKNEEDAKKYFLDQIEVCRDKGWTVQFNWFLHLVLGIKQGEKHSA

Regarding `CN(C)CCn1ncc2c(N3CC4CCC(C3)O4)nc(-c3ccc(NC(=O)Nc4ccccc4)cc3)nc21` [Example 156, 1-(4-{1-[2-(dimethylamino)ethyl]-4-(8-oxa-3-azabicyclo[3.2.1]oct-3-yl)-1H-pyrazolo[3,4-d]pyrimidin-6-yl}phenyl)-3-phenylurea], the IC50 was determined as 68 nM with breast line MDA468; 2.65 nM against Human mTOR (FLAG-TOR); 160 nM at PI3K [1]; 1530 nM on PI3K [2]; 1 nM in the assay with prostate line LNCap.

In the case of `CN(C)CCn1ncc2c(N3CC4CCC(C3)O4)nc(-c3ccc(NC(=O)Nc4cccnc4)cc3)nc21` [Example 157, 1-(4-{1-[2-(dimethylamino)ethyl]-4-(8-oxa-3-azabicyclo[3.2.1]oct-3-yl)-1H-pyrazolo[3,4-d]pyrimidin-6-yl}phenyl)-3-pyridin-3-ylurea], the IC50 was 220 nM in the assay on breast line MDA468; 2.7 nM on Human mTOR (FLAG-TOR); 235 nM on PI3K [1]; 3120 nM on PI3K [2]; 50 nM in the assay with prostate line LNCap.

Consider `CN(C)CCn1ncc2c(N3CC4CCC(C3)O4)nc(-c3ccc(NC(=O)OCCO)cc3)nc21` [Example 158, 2-hydroxyethyl (4-{1-[2-(dimethylamino)ethyl]-4-(8-oxa-3-azabicyclo[3.2.1]oct-3-yl)-1H-pyrazolo[3,4-d]pyrimidin-6-yl}phenyl)carbamate], for which the IC50 is 5000 nM with breast line MDA468; 27 nM against Human mTOR (FLAG-TOR); 3520 nM on PI3K [1]; more than 10000 nM at PI3K [2]; 680 nM in the assay on prostate line LNCap.

Take `CN(C)CCn1ncc2c(N3CC4CCC(C3)O4)nc(-c3ccc(NC(=O)Nc4ccc(N5CCN(C)CC5)cc4)cc3)nc21` [Example 159, 1-(4-{1-[2-(dimethylamino)ethyl]-4-(8-oxa-3-azabicyclo[3.2.1]oct-3-yl)-1H-pyrazolo[3,4-d]pyrimidin-6-yl}phenyl)-3-[4-(4-methylpiperazin-1-yl)phenyl]urea]: the IC50 with breast line MDA468 was determined as 90 nM; against Human mTOR (FLAG-TOR) it was 4.85 nM; on PI3K [1], 188 nM; on PI3K [2], 3820 nM; in the assay on prostate line LNCap, 18 nM.

`CCNC(=O)Nc1ccc(-c2nc(N3CC4CCC(C3)O4)c3cnn(CCN(C)C)c3n2)cc1` [Example 160, 1-(4-{1-[2-(dimethylamino)ethyl]-4-(8-oxa-3-azabicyclo[3.2.1]oct-3-yl)-1H-pyrazolo[3,4-d]pyrimidin-6-yl}phenyl)-3-ethylurea]: the IC50 in the assay with breast line MDA468 is 1800 nM; on Human mTOR (FLAG-TOR), 13 nM; at PI3K [1], 3120 nM; at PI3K [2], more than 10000 nM; with prostate line LNCap, 280 nM.

`CN(C)CCn1ncc2c(N3CC4CCC(C3)O4)nc(-c3ccc(NC(=O)NC4CC4)cc3)nc21` [Example 161, 1-cyclopropyl-3-(4-{1-[2-(dimethylamino)ethyl]-4-(8-oxa-3-azabicyclo[3.2.1]oct-3-yl)-1H-pyrazolo[3,4-d]pyrimidin-6-yl}phenyl)urea]: the half-inhibitory concentration (IC50) was 2200 nM in the assay with breast line MDA468; 8.4 nM on Human mTOR (FLAG-TOR); 3600 nM on PI3K [1]; more than 10000 nM at PI3K [2]; 210 nM in the assay on prostate line LNCap.

For the molecule `CN(C)CCn1ncc2c(N3CC4CCC(C3)O4)nc(-c3ccc(NC(=O)Nc4ccncc4)cc3)nc21` [Example 162, 1-(4-{1-[2-(dimethylamino)ethyl]-4-(8-oxa-3-azabicyclo[3.2.1]oct-3-yl)-1H-pyrazolo[3,4-d]pyrimidin-6-yl}phenyl)-3-pyridin-4-ylurea], the IC50 worked out at 200 nM with breast line MDA468; 1.2 nM against Human mTOR (FLAG-TOR); 173 nM at PI3K [1]; 482 nM at PI3K [2]; 50 nM in the assay with prostate line LNCap.

As to `CN(C)CCn1ncc2c(N3CC4CCC(C3)O4)nc(-c3ccc(NC(=O)Nc4ccc(CO)cc4)cc3)nc21` [Example 163, 1-(4-{1-[2-(dimethylamino)ethyl]-4-(8-oxa-3-azabicyclo[3.2.1]oct-3-yl)-1H-pyrazolo[3,4-d]pyrimidin-6-yl}phenyl)-3-[4-(hydroxymethyl)phenyl]urea], the IC50 in the assay with breast line MDA468 was found to be 90 nM; on Human mTOR (FLAG-TOR), 0.88 nM; at PI3K [1] it was 43 nM; at PI3K [2] it was 1290 nM; in the assay with prostate line LNCap, 28 nM.

With `COC(=O)N1CCC(n2ncc3c(N4CC5CCC(C4)O5)nc(-c4ccc(NC(=O)Nc5ccc(CO)cc5)cc4)nc32)CC1` [Example 164, methyl 4-{6-[4-({[4-(hydroxymethyl)phenyl]carbamoyl}amino)phenyl]-4-(8-oxa-3-azabicyclo[3.2.1]oct-3-yl)-1H-pyrazolo[3,4-d]pyrimidin-1-yl}piperidine-1-carboxylate], the IC50 in the assay with breast line MDA468 was less than 1 nM; at Human mTOR (FLAG-TOR), 0.08 nM; at PI3K [1], 29 nM; at PI3K [2], 1820 nM; in the assay with prostate line LNCap, less than 1 nM.

In the case of `COC(=O)N1CCC(n2ncc3c(N4CC5CCC(C4)O5)nc(-c4ccc(NC(=O)Nc5ccc(CCO)cc5)cc4)nc32)CC1` [Example 165, methyl 4-{6-[4-({[4-(2-hydroxyethyl)phenyl]carbamoyl}amino)phenyl]-4-(8-oxa-3-azabicyclo[3.2.1]oct-3-yl)-1H-pyrazolo[3,4-d]pyrimidin-1-yl}piperidine-1-carboxylate], the half-inhibitory concentration (IC50) with breast line MDA468 is less than 1 nM; on Human mTOR (FLAG-TOR), 0.095 nM; on PI3K [1], 54 nM; at PI3K [2] it was 2490 nM; in the assay with prostate line LNCap it was less than 1 nM.

`COC(=O)N1CCC(n2ncc3c(N4CC5CCC(C4)O5)nc(-c4ccc(NC(=O)Nc5ccc(N6CCN(C)CC6)cc5)cc4)nc32)CC1` [Example 166, methyl 4-{6-[4-({[4-(4-methylpiperazin-1-yl)phenyl]carbamoyl}amino)phenyl]-4-(8-oxa-3-azabicyclo[3.2.1]oct-3-yl)-1H-pyrazolo[3,4-d]pyrimidin-1-yl}piperidine-1-carboxylate]: the half-maximal inhibitory concentration (IC50) is 2 nM in the assay with breast line MDA468; 0.48 nM against Human mTOR (FLAG-TOR); 117 nM at PI3K [1]; 867 nM on PI3K [2]; less than 1 nM with prostate line LNCap.

For the molecule `COC(=O)N1CCC(n2ncc3c(N4CC5CCC(C4)O5)nc(-c4ccc(NC(=O)Nc5ccc(N6CCN(C)CC6)nc5)cc4)nc32)CC1` [Example 167, methyl 4-{6-[4-({[6-(4-methylpiperazin-1-yl)pyridin-3-yl]carbamoyl}amino)phenyl]-4-(8-oxa-3-azabicyclo[3.2.1]oct-3-yl)-1H-pyrazolo[3,4-d]pyrimidin-1-yl}piperidine-1-carboxylate], the IC50 was 4 nM with breast line MDA468; 0.425 nM at Human mTOR (FLAG-TOR); 234 nM on PI3K [1]; 1220 nM on PI3K [2]; less than 1 nM in the assay on prostate line LNCap.

With `COC(=O)N1CCC(n2ncc3c(N4CC5CCC(C4)O5)nc(-c4ccc(NC(=O)NCCN)cc4)nc32)CC1` [Example 168, methyl 4-[6-(4-{[(2-aminoethyl)carbamoyl]amino}phenyl)-4-(8-oxa-3-azabicyclo[3.2.1]oct-3-yl)-1H-pyrazolo[3,4-d]pyrimidin-1-yl]piperidine-1-carboxylate], the half-maximal inhibitory concentration (IC50) with breast line MDA468 amounted to 9000 nM; against Human mTOR (FLAG-TOR), 3.15 nM; on PI3K [1], 218 nM; at PI3K [2] it was 3220 nM; in the assay with prostate line LNCap, 1500 nM.

Usually IC50 stands for the midpoint of a concentration-inhibition curve.
